Assay results published in patent US20260022096A1, “NOVEL SULFONAMIDES AND THEIR USE AS NEUROPROTECTIVE AND/OR NEURORESTORATIVE AGENTS” (GENECODE, priority 2022, published 2026).
pEC50: −log10 of the molar value.

Target: T1, GFRα1-RET (Homo sapiens, UniProt P56159)
T1 construct: expressed in transfected cells; host or cells: MG87 murine fibroblasts, stably transfected
T1 sequence (P56159 25-429 limits assumed): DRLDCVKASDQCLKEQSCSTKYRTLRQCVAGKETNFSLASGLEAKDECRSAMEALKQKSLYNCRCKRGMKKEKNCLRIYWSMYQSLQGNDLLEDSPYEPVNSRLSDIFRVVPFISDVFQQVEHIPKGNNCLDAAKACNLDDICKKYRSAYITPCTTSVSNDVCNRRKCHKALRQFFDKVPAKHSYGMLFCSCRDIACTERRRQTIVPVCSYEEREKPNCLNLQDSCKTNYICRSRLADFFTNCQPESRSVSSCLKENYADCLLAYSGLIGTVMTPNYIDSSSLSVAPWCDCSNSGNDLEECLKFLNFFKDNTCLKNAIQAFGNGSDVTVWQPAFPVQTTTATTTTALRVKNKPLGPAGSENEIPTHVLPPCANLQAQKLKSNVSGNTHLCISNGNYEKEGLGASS
Experiment: Elk1 reporter-gene (luciferase) assay in cells expressing GFRα1-RET
Assay type: cell-based
Details: MG87 murine fibroblasts stably transfected with PathDetect Elk-1, GFRα1 and RET, 6 concentrations, agonist/activator activity
Method: For ECso determination, a dose-response test was performed using 6 concentrations of each tested compound. Dose-response curves were fitted using the sigmoidal dose-response (variable slope) analysis in GraphPad Prism program (Graph Pad Inc) and ECso of agonist/activator activity was calculated. Dose-response experiments were all performed in duplicate, two times independently.

| SMILES | pEC50 |
| --- | --- |
| COc1ccc(S(=O)(=O)N2CCCC(Cc3ccccc3)C2)cc1N1C2CCC1CN(C(=O)c1ccc(F)cc1Cl)C2 (racemic) [compound 011, [(1S,5R)-8-[5-[[(3RS)-3-benzyl-1-piperidyl]sulfonyl]-2-methoxy-phenyl]-3,8-diazabicyclo[3.2.1]]octan-3-yl]-(2-chloro-4-fluoro-phenyl)methanone] | > 6.00 |
| COc1ccc(S(=O)(=O)N(C)CC2CC2)cc1N1[C@@H]2CC[C@H]1CN(C(=O)c1ccc(F)cc1Cl)C2 [compound 005, 3-[(1S,5R)-3-(2-chloro-4-fluoro-benzoyl)-3,8-diazabicyclo[3.2.1]octan-8-yl]-N-(cyclopropylmethyl)-4-methoxy-N-methyl-benzenesulfonamide] | > 6.00 |
| CCCN(C)S(=O)(=O)c1cccc(N2[C@@H]3CC[C@H]2CN(C(=O)c2ccc(F)cc2Cl)C3)c1 [compound 028, 3-[(1S,5R)-3-(2-chloro-4-fluoro-benzoyl)-3,8-diazabicyclo[3.2.1]octan-8-yl]-N-methyl-N-propyl-benzenesulfonamide] | 5.00 to 6.00 |
| COc1ccc(S(=O)(=O)N(C)C(C)(C)C)cc1N1[C@@H]2CC[C@H]1CN(C(=O)c1cc(F)c(F)cc1Cl)C2 [compound 054, N-tert-butyl-3-[(1S,5R)-3-(2-chloro-4,5-difluoro-benzoyl)-3,8-diazabicyclo[3.2.1]octan-8-yl]-4-methoxy-N-methyl-benzenesulfonamide] | 5.00 to 6.00 |
| C[C@H]1CN(C(=O)c2ccc(F)cc2Cl)CCN1c1cc(S(=O)(=O)NC(C)(C)C)cc(Cl)c1O [compound 110, N-tert-butyl-3-chloro-5-[(2S)-4-(2-chloro-4-fluoro-benzoyl)-2-methyl-piperazin-1-yl]-4-hydroxy-benzenesulfonamide] | > 6.00 |
| COC(=O)c1ccc(C2CCN(S(=O)(=O)c3ccc(OC)c(N4[C@@H]5CC[C@H]4CN(C(=O)c4ccc(F)cc4Cl)C5)c3)CC2)cc1 [compound 042, methyl 4-[1-[3-[(1S,5R)-3-(2-chloro-4-fluoro-benzoyl)-3,8-diazabicyclo[3.2.1]octan-8-yl]-4-methoxy-phenyl]sulfonyl-4-piperidyl]benzoate] | > 6.00 |
| COc1ccc(S(=O)(=O)N2CCN(c3ccccc3)CC2)cc1N1[C@@H]2CC[C@H]1CN(C(=O)c1ccc(F)cc1Cl)C2 [compound 012, (2-chloro-4-fluoro-phenyl)-[(1S,5R)-8-[2-methoxy-5-(4-phenylpiperazin-1-yl)sulfonyl-phenyl]-3,8-diazabicyclo[3.2.1]octan-3-yl]methanone] | > 6.00 |
| COc1ccc(S(=O)(=O)N2CCC(C(F)(F)F)CC2)cc1N1[C@@H]2CC[C@H]1CN(C(=O)c1ccc(F)cc1Cl)C2 [compound 007, (2-chloro-4-fluoro-phenyl)-[(1S,5R)-8-[2-methoxy-5-[[4-(trifluoromethyl)-1-piperidyl]sulfonyl]phenyl]-3,8-diazabicyclo[3.2.1]octan-3-yl]methanone] | > 6.00 |
| CCCN(C)S(=O)(=O)c1ccc(OC)c(N2CCN(C(=O)c3ccc(F)cc3C(F)(F)F)CC2C(F)(F)F)c1 (racemic) [compound 016, 4-methoxy-N-methyl-N-propyl-3-[rac-(2S)-4-[4-fluoro-2-(trifluoromethyl)benzoyl]-2-(trifluoromethyl)piperazin-1-yl]benzenesulfonamide] | 5.00 to 6.00 |
| COCCOc1c(Cl)cc(S(=O)(=O)N(C)C(C)(C)C)cc1N1[C@@H]2CC[C@H]1CN(C(=O)c1ccc(F)cc1Cl)C2 [compound 135, N-tert-butyl-3-chloro-5-[(1S,5R)-3-(2-chloro-4-fluoro-benzoyl)-3,8-diazabicyclo[3.2.1]octan-8-yl]-4-(2-methoxyethoxy)-N-methyl-benzenesulfonamide] | > 6.00 |
| COc1ccc(S(=O)(=O)N2CCC(c3ccc(F)cc3)CC2)cc1N1[C@@H]2CC[C@H]1CN(C(=O)c1ccc(F)cc1Cl)C2 [compound 039, (2-chloro-4-fluoro-phenyl)-[(1S,5R)-8-[5-[[4-(4-fluorophenyl)-1-piperidyl]sulfonyl]-2-methoxy-phenyl]-3,8-diazabicyclo[3.2.1]octan-3-yl]methanone] | > 6.00 |
| O=C(c1ccc(F)cc1Cl)N1C[C@H]2CC[C@@H](C1)N2c1cc(S(=O)(=O)N2CCC(c3ccccc3)CC2)cc(F)c1O [compound 083, (2-chloro-4-fluoro-phenyl)-[(1S,5R)-8-[3-fluoro-2-hydroxy-5-[(4-phenyl-1-piperidyl)sulfonyl]phenyl]-3,8-diazabicyclo[3.2.1]octan-3-yl]methanone] | > 6.00 |
| CN1CCc2cc(S(=O)(=O)N3CCC(c4ccccc4)CC3)cc(N3[C@@H]4CC[C@H]3CN(C(=O)c3ccc(F)cc3Cl)C4)c21 [compound 119, (2-chloro-4-fluoro-phenyl)-[(1S,5R)-8-[1-methyl-5-[(4-phenyl-1-piperidyl)sulfonyl]indolin-7-yl]-3,8-diazabicyclo[3.2.1]octan-3-yl]methanone] | > 6.00 |
